This is an account of results in patent US8748375B2 (Amylin Pharmaceuticals, LLC, priority 2009, dated 2014).

Marks after values point to notes of the source that are not given here. Some results are limits rather than exact numbers.

For series [1] the following is noted: in vivo; cited from earlier work.
Series [2] relates to DIO Levin rats. In words: Example 5: amylin versus pramlintide. The settings on record: 76 nmol/kg/day, osmotic mini-pump, 24 days. In kind it is in vivo, rat. The protocol: 48 DIO Levin rats (an in-bred model of diet induced obesity) were used in this study. […] Food intake and body weight was measured daily. […] The pair-fed groups were only allowed to consume the daily intakes of their respective drug-treated groups. For body composition, rats were scanned in a rodent NMR before treatment and after sacrifice (at the end of the study), allowing for the ability to calculate changes in carcass fat and protein (e.g., lean tissue).

Series [3] deals with Retired female breeder rats on high fat diet. In words: Example 4: amylin with prior or concurrent food restriction. In kind it is in vivo, rat. The settings on record: for Estimated Mean Weight change from treatment: amylin 100 μg/kg/day. The source says: Retired female breeder rats were maintained on a high fat diet (40% fat) for 8 weeks. Prior to drug treatment, rats were either ad-lib fed or food restricted to 95% of their starting body weight.

Series [4] deals with high fat-fed rats. In words: Example 2: three doses of amylin, food intake and body weight. Format: in vivo, rat. The source says: (§1) Low fat-fed rats (11% kcal from fat, D12329, Research Diets) were also implanted with pumps delivering vehicle. Food intake and body weight measurements were obtained weekly.
The subject of series [5] is Lean, male Harlan SPRAGUE DAWLEY (HSD) rats. In words: Example 3: chronic amylin infusion, lean rats. Format: in vivo, rat. More on the design: Fat: dose or concentration left out as unconfirmed. The protocol: (§2) Lean, male Harlan SPRAGUE DAWLEY® (HSD) (Harlan 7012) rats were maintained on “standard chow” (˜5% calories from fat).
(§3) Food intake and body weight were recorded daily (FIGS. 5, 6A, 6B, 7, 8A, and 8B).
(§4) On the final day of the experiment, rats were deeply anaesthetized and sacrificed by cardiac puncture. Plasma triglycerides, glucose, and cholesterol were measured on a COBAS Mira plasma Analyzer (Roche). Plasma leptin and insulin were measured using Linco Research kits. (See, FIGS. 9A-9F and 10A-10E.) Body composition was measured by chemical analysis (Covance Laboratories, Madison, Wis.). Fat pad weights of the epididymal, retroperitoneal, subcutaneous, and perirenal fat pads (all unilateral; analysis only done in DIO animals) were carefully dissected and weighed (FIGS. 12A-12D). In analyzing the tissue biochemistry, […] were powdered under liquid N2 and extracted in chloroform:methanol. 0.6% NaCl solution was then added and the tubes were vortexed, centrifuged, and the organic phase was transferred to glass scintillation vials and dried under a stream of N2. Dried lipids were resuspended and triglycerides were quantified by enzymatic assay (Pointe Scientific, Inc.). Tissue glycogen was measured by the amyloglucosidase method. (See FIGS. 11A-11D.)
(§5) All data are represented as mean±SEM. Analysis of variance (ANOVA) and Bonferroni post-hoc tests were used to test for group differences (SYSTAT® for Windows). A P-value<0.05 was considered significant. Graphs were generated using PRISM® 4 for Windows (Graphpad Software).

Series [6] has as its system DIO (Levin) male rats. In words: Example 3: chronic amylin infusion, DIO rats. More on the design: Ash: dose or concentration left out as unconfirmed. Format: in vivo, rat. The protocol:
as §2, §3, §4, §5

Series [7] has as its system High fat-fed male SPRAGUE-DAWLEY rats (DIO). In words: Example 1: chronic infusion, food consumption, body weight, body composition. Format: in vivo, rat. The conditions noted are these: obesity-prone rats, vs vehicle control. The protocol: as §1
Rats were sacrificed by cardiac puncture under anesthesia. Triglyceride levels were measured on a COBAS Mira plasma analyzer (Roche), and leptin and insulin were assayed according to Linco Research rat RIA kits. Body composition was measured by chemical analysis (Covance Laboratories, Madison, Wis.).
All data are represented as mean±SEM. Analysis of variance was used to test for group differences.
The rats were fattened for 10 weeks prior to drug treatment. The high fat-fed rats were designated as obesity-prone (top 50% of weight gainers) or obesity-resistant (bottom 50%) based on the amount of weight gained through week 7.

The nature of series [8]: adsorption onto glass in liquid form. In kind it is physicochemical. The conditions noted are these: glass container. The source says:
These formulations may then be lyophilized. Surfactants can cause denaturation of protein, both of hydrophobic disruption and by salt bridge separation. Relatively low concentrations of surfactant may exert a potent denaturing activity, because of the strong interactions between surfactant moieties and the reactive sites on proteins. However, judicious use of this interaction can stabilize proteins against interfacial or surface denaturation. Surfactants which could further stabilize the peptide may optionally be present in the range of about 0.001 to 0.3% (w/v) of the total formulation and include polysorbate 80 (i.e., polyoxyethylene(20) sorbitan monooleate), CHAPS® (i.e., 3-[(3-cholamidopropyl) dimethylammonio] 1-propanesulfonate), Brij® (e.g., Brij 35, which is (polyoxyethylene (23) lauryl ether), poloxamer, or another non-ionic surfactant.

The test system of series [9] is insulin-stimulated glycogen synthesis in soleus muscle. In words: Soleus Muscle Assay. Format: cell-based, rat. The protocol:
Concentrations of peptide dissolved in carrier-free buffers are determined by quantitative amino acid analysis, as described therein. The ability of compounds to act as agonists in this assay is determined by measuring EC50 values. […] Similar results were obtained with other agonist compounds listed above.

The conditions of series [10]: pramlintide 180 mcg TID, 1 day of treatment; cited from earlier work.
Where [11] appears, read: amylin 300 mg/kg/day, 28-day pump.
Setting [12] is: DIO rats, amylin 300 mg/kg/day, 28-day pump.

In the case of “amylin: Amylin synthesized by Amylin Pharmaceuticals, Inc. by solid-phase chemistry; species not stated in the examples (KCNTATCATQRLANFLVHSSNNFGAILSSTNVGSNTY; Islet amyloid polypeptide; UniProt P10997 34-70, looked up)”, the “effect on food intake tapers off after” value in [1] is 60 min. Besides, the “onset of effect on food intake” value in series [1] was at most 30 min. Further, the body composition entry in series [2] is on record as “favorable effects on body composition”. The body weight gain entry is given as “significant effect on slowing body weight gain” in series [2] and “reduction in body weight gain” in [4] (30 μg/kg/day). Also, the “Estimated Mean Weight change from treatment” value was -21.8 ± 1.4 g in series [3] (Ad-lib prior, Ad-lib during); -23.1 ± 2.3 g in [3] (Ad-lib prior, Restricted during); -18.2 ± 2.5 g in [3] (Restricted prior, Ad-lib during); -17.1 ± 2.0 g in [3] (Restricted prior, Restricted during). For the same molecule, the body weight result in series [3] (all treatment conditions) is recorded as “significantly reduced body weight under all treatment conditions”. In addition, the food intake entry in series [3] (vs vehicle treated counterparts) is given as “ate less than their vehicle treated counterparts”. For the same molecule, in series [4] (30, 100, 300 μg/kg/day), the “effects on food intake and body weight” value is listed as “dose-dependent”. The “weight gain compared to vehicle rats” value in series [5] and in [6] (DIO rats) was “significant reduction in weight gain” in each case. The Moisture in [5] (setting [11]) stood at 67.57 ± 0.7 %; in series [6] (setting [12]), 56.68 ± 4.4 %. The Protein in series [5] (setting [11]) was 20.67 ± 0.74%; in [6] (setting [12]), 18.09 ± 1.68 %. Besides, the Weight in [5] (setting [11]) is given as 392.25* g; in [6] (setting [12]), 548.94* g. Moreover, the Fat in series [5] (amylin, 28-day pump) is reported as 7.2 ± 1.5 %; in [6] (setting [12]), 24.3 ± 6.5 %. Besides, the percent body fat result is “lower percent body fat relative to pair-fed” in series [5] (relative to pair-fed) and “significant decrease in percent body fat” in series [6] (DIO rats). For the same molecule, the percent protein result in series [6] (DIO rats) is “significant preservation or gain in percent protein”. The molecule further returned an Ash in series [6] (DIO rats, 28-day pump) of 1.65 ± 0.34%. In addition, the muscle glycogen content result in [6] (rat, in vivo) is “significantly reduced muscle glycogen content”. Further, the “protein (body composition)” value in [7] is “increase in protein”.
As for `CC[C@H](C)[C@H](NC(=O)[C@@H]1CCCN1C(=O)CNC(=O)[C@H](Cc1ccccc1)NC(=O)[C@H](CC(N)=O)NC(=O)[C@H](CC(N)=O)NC(=O)[C@H](CO)NC(=O)[C@H](CO)NC(=O)[C@H](Cc1c[nH]cn1)NC(=O)[C@@H](NC(=O)[C@H](CC(C)C)NC(=O)[C@H](Cc1ccccc1)NC(=O)[C@H](CC(N)=O)NC(=O)[C@H](C)NC(=O)[C@H](CC(C)C)NC(=O)[C@H](CCCNC(=N)N)NC(=O)[C@H](CCC(N)=O)NC(=O)[C@@H](NC(=O)[C@H](C)NC(=O)[C@@H]1CSSC[C@H](NC(=O)[C@@H](N)CCCCN)C(=O)N[C@@H](CC(N)=O)C(=O)N[C@@H]([C@@H](C)O)C(=O)N[C@@H](C)C(=O)N[C@@H]([C@@H](C)O)C(=O)N1)[C@@H](C)O)C(C)C)C(=O)N[C@@H](CC(C)C)C(=O)N1CCC[C@H]1C(=O)N1CCC[C@H]1C(=O)N[C@H](C(=O)N[C@@H](CC(N)=O)C(=O)N[C@H](C(=O)NCC(=O)N[C@@H](CO)C(=O)N[C@@H](CC(N)=O)C(=O)N[C@H](C(=O)N[C@@H](Cc1ccc(O)cc1)C(N)=O)[C@@H](C)O)C(C)C)[C@@H](C)O` [^25, 28, 29Pro-h-Amylin], in series [8], the “tendency to adsorb onto glass” value is given as “does not have a tendency to adsorb onto the glass”. In [2], the body composition entry is “favorable effects on body composition” and the body weight gain entry is “significant effect on slowing body weight gain”. In [9], the “amylin agonist activity (in words)” value is reported as “act as amylin agonists” and the “antagonist activity in soleus muscle assay (in words)” value is listed as “negligible antagonist activity”. Also, the “reduction in mean daily caloric intake” value in series [10] is given as about 19%.
For “CSNLSTCVLGKLSQELHKLQTYPRTNTGSGTP [salmon calcitonin]”, the “delayed effect, peak levels still maintained at” value in series [1] was 240 min.
